In brackets after ≈: the same amount, converted by molar mass.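 Compound exposure: 48 hours, 5 concentrations, 96-well plates. Here, GI50 denotes the concentration required for 50% inhibition of growth. TGI marks complete inhibition of growth.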 Activity calls are given as the source filed them. Cut-off read from the data, not from the text of the source: active = GI50 below about 0.43 µM; inactive = the rest.
Experiments:
Assay in all cases: NCI tumour cell line growth inhibition, 48 h
RXF-631 renal = test system: RXF-631 renal
SNB-78 CNS = test system: SNB-78 CNS
P388 leukemia = test system: P388 leukemia
P388/ADR leukemia = test system: P388/ADR leukemia
SN12K1 renal = test system: SN12K1 renal

SMILES | TGI (RXF-631 renal) | TGI (SNB-78 CNS) | also measured
c1ccc(-c2csc3ncn4cnnc4c23)cc1 | > 100 µM | > 100 µM | –
O=c1[nH]c2ccccc2n1C1CCN(CCCC(c2ccc(F)cc2)c2ccc(F)cc2)CC1 | – | 32 µM | –
Cn1nc(-c2ccccc2)c(C(=O)/C=C/c2ccc(Cl)cc2)c(N2CCOCC2)c1=O | 23.2 µM | – | –
N#C/C(=C1\OC(=N)C(c2ccc(Cl)cc2Cl)C1=O)c1ccc(Cl)cc1Cl (stereo not given) | > 100 µM | > 100 µM | –
O=C(c1c(O)cc(O)cc1O)C1Cc2ccccc21 (stereo not given) | – | > 100 µM | –
c1ccc(CN2COc3c(ccc4c5c(ccc34)CN(Cc3ccccc3)CO5)C2)cc1 | > 100 µM | > 100 µM | –
CC(N)CC(=O)O (stereo not given) | – | > 5000 µM | –
O=C(CC(=O)c1ccccc1)C(=O)Nc1ccc(Cl)cc1 | – | > 100 µM | –
CC(C)OC(=O)C1Cc2c([nH]c3ccccc23)C(c2ccccc2)N1 (stereo not given) | – | > 100 µM | –
O=C(Cc1ccccc1)C(c1ccccc1)S(=O)(=O)c1ccccc1 (stereo not given) | > 100 µM | > 100 µM | –
C#CCNC(=O)NC(CCCCNC(=O)OCc1ccccc1)C(=O)OCc1ccccc1 (stereo not given) | – | 80.1 µM | –
COc1c(OC(C)C)cc2cc(O)c(C(=O)NC3Cc4ccc(c(Cl)n4)O[C@@H]4C=C5C#C/C(=C\C#CC6OC56C4OC4CC(C)(O)C(O)C(C)O4)C(OC4CC(O)C(N(C)C)C(C)O4)COC3=O)cc2c1OC (stereo not given in full) | – | 37.5 µg/mL | outcome (RXF-631 renal): inactive; GI50 (SNB-78 CNS): 37.5 µg/mL (≈ 36.4 µM)
C[P+]1(c2ccccc2)CCCCC1 | > 100 µM | > 100 µM | –
C=C1C=CC2(Br)OC3CC(C)(Cl)C(Br)CC13C2(C)C (stereo not given) | > 100 µM | 61.7 µM | –
COc1c(CC=C(C)C)c(O)c(C(CC(C)C)c2c(O)c(CC=C(C)C)c(O)c(C(C)=O)c2O)c(O)c1C(C)=O (stereo not given) | 6.94 µM | 17.5 µM | –
Cc1ccc(NC(=O)/C(C#N)=C/c2ccccc2)c(C)c1 | – | > 100 µM | –
CC(=O)CC(=O)CCC(=O)Nc1cccc(C(F)(F)F)c1 | – | > 100 µM | –
Cc1nnc(N/N=C(/C(=O)C(C#N)c2ccc(Cl)cc2)C(C#N)c2ccc(Cl)cc2)n1N (stereo not given) | 35.4 µM | 51.3 µM | –
CCOC(=O)C(CCCNC(=O)OC(C)(C)C)N(Cc1ccc(OC)cc1OC)C(=O)CC(=O)CP(=O)(OCC)OCC (stereo not given) | > 100 µM | – | –
O=C(CO)C1CC2C=CC1C2 (stereo not given) | > 100 µM | > 100 µM | –
C/C(=N\NC(=S)N1CCN(c2ccccn2)CC1)c1ncccn1 | – | 23.1 µM | TGI (P388 leukemia): 0.0153 µM; TGI (P388/ADR leukemia): 0.0154 µM; TGI (SN12K1 renal): 1.61 µM

Reference: PubChem BioAssay (NCI)
